Data published in patent US10508104B2, “6-hydroxy-5-(phenyl/heteroarylsulfonyl)pyrimidin-4(1H)-one as APJ agonists” (Bristol-Myers Squibb Company, priority 2016, dated 2019).

Biological target: human APJ receptor (Homo sapiens (Human), UniProt P35414)
Assay: Intracellular cAMP accumulation assay (APJ hcAMP, HTRF)
Assay type: cell-based
Conditions: HEK293 cells stably expressing human APJ receptor; inhibition of forskolin-mediated cAMP production; read-out: Human APJ cAMP EC50 Potency range
Method in brief: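 HEK293 cells stably expressing human APJ, 5,000 per well, incubated 30 min at rt with compound, […] and 2 μM forskolin. cAMP measured by HTRF against a cAMP standard curve as inhibition of forskolin-driven production. EC50 from variable-slope sigmoidal fit.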

human APJ receptor, sequence (P35414 whole entry): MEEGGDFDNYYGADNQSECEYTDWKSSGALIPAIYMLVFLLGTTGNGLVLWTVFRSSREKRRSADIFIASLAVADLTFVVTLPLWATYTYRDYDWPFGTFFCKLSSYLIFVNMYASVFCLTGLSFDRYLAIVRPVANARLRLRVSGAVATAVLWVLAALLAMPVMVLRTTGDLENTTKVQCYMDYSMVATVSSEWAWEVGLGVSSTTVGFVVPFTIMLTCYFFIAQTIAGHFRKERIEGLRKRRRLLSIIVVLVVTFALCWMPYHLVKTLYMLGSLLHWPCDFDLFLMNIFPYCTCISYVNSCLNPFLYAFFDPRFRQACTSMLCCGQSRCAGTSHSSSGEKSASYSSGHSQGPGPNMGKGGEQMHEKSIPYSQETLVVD

Row | Structure (SMILES) | EC50
1 | CC[C@@H](c1cccc(C#N)c1)n1c(COC(C)C)nc(=O)c(S(=O)(=O)c2ccc(-c3ccncc3C#N)cc2)c1O [Example 403, 4-[4-({1-[(1S)-1-(3-cyanophenyl)propyl]-6-hydroxy-4-oxo-2-[(propan-2-yloxy)methyl]-1,4-dihydropyrimidin-5-yl}sulfonyl)phenyl]pyridine-3-carbonitrile] | 0.01 to 10 nM
2 | COC[C@@H](c1cccc(C#N)c1)n1c(COC(C)C)nc(=O)c(S(=O)(=O)c2ccc(-c3ccncc3C#N)cc2)c1O [Example 404, 4-[4-({1-[(1R)-1-(3-cyanophenyl)-2-methoxyethyl]-6-hydroxy-4-oxo-2-[(propan-2-yloxy)methyl]-1,4-dihydropyrimidin-5-yl}sulfonyl)phenyl] pyridine-3-carbonitrile] | 0.01 to 10 nM
3 | COC[C@@H](c1ccccc1)n1c(COC(C)C)nc(=O)c(S(=O)(=O)c2ccc(-c3ccncc3C#N)c(F)c2)c1O [Example 405, 4-[2-fluoro-4-({6-hydroxy-1-[(1R)-2-methoxy-1-phenylethyl]-4-oxo-2-[(propan-2-yloxy)methyl]-1,4-dihydropyrimidin-5-yl}sulfonyl)phenyl]pyridine-3-carbonitrile] | 0.01 to 10 nM
4 | COC[C@@H](c1ccccc1)n1c(COC(C)C)nc(=O)c(S(=O)(=O)c2ccc(-c3ccncc3C#N)cc2)c1O [Example 406, 4-[4-({6-hydroxy-1-[(1R)-2-methoxy-1-phenylethyl]-4-oxo-2-[(propan-2-yloxy)methyl]-1,4-dihydropyrimidin-5-yl}sulfonyl)phenyl]pyridine-3-carbonitrile] | 0.01 to 10 nM
5 | COC[C@@H](c1cc(F)cc(F)c1)n1c(COC(C)C)nc(=O)c(S(=O)(=O)c2ccc(-c3cnccc3C#N)cc2)c1O [Example 407, 3-[4-({1-[(1R)-1-(3,5-difluorophenyl)-2-methoxyethyl]-6-hydroxy-4-oxo-2-[(propan-2-yloxy)methyl]-1,4-dihydropyrimidin-5-yl}sulfonyl)phenyl] pyridine-4-carbonitrile] | 0.01 to 10 nM
6 | COC[C@@H](c1cc(F)cc(F)c1)n1c(COC(C)C)nc(=O)c(S(=O)(=O)c2ccc(-c3cccn(C)c3=O)cc2)c1O [Example 408, 1-[(1R)-1-(3,5-difluorophenyl)-2-methoxyethyl]-6-hydroxy-5-[4-(1-methyl-2-oxo-1,2-dihydropyridin-3-yl)benzenesulfonyl]-2-[(propan-2-yloxy)methyl]-1,4-dihydropyrimidin-4-one] | 0.01 to 10 nM
7 | COC[C@@H](c1ccccc1)n1c(COC(C)C)nc(=O)c(S(=O)(=O)c2ccc(-c3cnccc3C#N)c(F)c2)c1O [Example 409, 3-[2-fluoro-4-({6-hydroxy-1-[(1R)-2-methoxy-1-phenylethyl]-4-oxo-2-[(propan-2-yloxy)methyl]-1,4-dihydropyrimidin-5-yl}sulfonyl)phenyl]pyridine-4-carbonitrile] | 0.01 to 10 nM
8 | CC[C@@H](c1cccc(C#N)c1)n1c(COC(C)C)nc(=O)c(S(=O)(=O)c2ccc(-c3cnccc3C#N)cc2)c1O [Example 410, 3-[4-({1-[(1S)-1-(3-cyanophenyl)propyl]-6-hydroxy-4-oxo-2-[(propan-2-yloxy)methyl]-1,4-dihydropyrimidin-5-yl}sulfonyl)phenyl]pyridine-4-carbonitrile] | 0.01 to 10 nM
9 | COC[C@@H](c1cccc(C#N)c1)n1c(COC(C)C)nc(=O)c(S(=O)(=O)c2ccc(-c3cnccc3C#N)cc2)c1O [Example 411, 3-[4-({1-[(1R)-1-(3-cyanophenyl)-2-methoxyethyl]-6-hydroxy-4-oxo-2-[(propan-2-yloxy)methyl]-1,4-dihydropyrimidin-5-yl}sulfonyl)phenyl]pyridine-4-carbonitrile] | 0.01 to 10 nM
10 | CCCCc1nc(=O)c(S(=O)(=O)c2ccc(-c3ccnc(F)c3C)cc2)c(O)n1[C@@H](COC)c1cccc(C(N)=O)c1 [Example 412, 3-[(1R)-1-{2-butyl-5-[4-(2-fluoro-3-methylpyridin-4-yl)benzenesulfonyl]-6-hydroxy-4-oxo-1,4-dihydropyrimidin-1-yl}-2-methoxyethyl]benzamide] | 0.01 to 10 nM
11 | COC[C@@H](c1ccccc1)n1c(COC(C)C)nc(=O)c(S(=O)(=O)c2ccc(-c3cnccc3C#N)cc2)c1O [Example 413, 3-[4-({6-hydroxy-1-[(1R)-2-methoxy-1-phenylethyl]-4-oxo-2-[(propan-2-yloxy)methyl]-1,4-dihydropyrimidin-5-yl}sulfonyl)phenyl] pyridine-4-carbonitrile] | 0.01 to 10 nM
12 | CC(C)OCc1nc(=O)c(S(=O)(=O)c2ccc(-c3cnccc3C#N)cc2)c(O)n1[C@H](c1cccc(C#N)c1)C1CC1 [Example 414, 3-[4-({1-[(S)-(3-cyanophenyl)(cyclopropyl)methyl]-6-hydroxy-4-oxo-2-[(propan-2-yloxy)methyl]-1,4-dihydropyrimidin-5-yl}sulfonyl)phenyl] pyridine-4-carbonitrile] | 0.01 to 10 nM
13 | Cc1cnccc1-c1ccc(S(=O)(=O)c2c(O)n([C@H](c3cccc(C#N)c3)C3CC3)c(COC(C)C)nc2=O)cc1 [Example 415, 3-[(S)-cyclopropyl({6-hydroxy-5-[4-(3-methylpyridin-4-yl)benzenesulfonyl]-4-oxo-2-[(propan-2-yloxy)methyl]-1,4-dihydropyrimidin-1-yl})methyl]benzonitrile] | 0.01 to 10 nM
14 | CC(C)OCc1nc(=O)c(S(=O)(=O)c2ccc(-c3ccncc3C#N)cc2)c(O)n1[C@H](c1cccc(C#N)c1)C1CC1 [Example 416, 4-[4-({1-[(S)-(3-cyanophenyl)(cyclopropyl)methyl]-6-hydroxy-4-oxo-2-[(propan-2-yloxy)methyl]-1,4-dihydropyrimidin-5-yl}sulfonyl)phenyl]pyridine-3-carbonitrile] | 0.01 to 10 nM
15 | CC(C)OCc1nc(=O)c(S(=O)(=O)c2ccc(-c3ccc(F)cc3C(N)=O)cc2)c(O)n1[C@H](c1cccc(C#N)c1)C1CC1 [Example 417, 4′-({1-[(S)-(3-cyanophenyl)(cyclopropyl)methyl]-6-hydroxy-4-oxo-2-[(propan-2-yloxy)methyl]-1,4-dihydropyrimidin-5-yl}sulfonyl)-4-fluoro-[1,1′-biphenyl]-2-carboxamide] | 0.01 to 10 nM
16 | CC(C)OCc1nc(=O)c(S(=O)(=O)c2ccc(-c3ccccc3C(N)=O)cc2)c(O)n1[C@H](c1cccc(C#N)c1)C1CC1 [Example 418, 4′-({1-[(S)-(3-cyanophenyl)(cyclopropyl)methyl]-6-hydroxy-4-oxo-2-[(propan-2-yloxy)methyl]-1,4-dihydropyrimidin-5-yl}sulfonyl)-[1,1′-biphenyl]-2-carboxamide] | 0.01 to 10 nM
17 | Cc1c(-c2ccc(S(=O)(=O)c3c(O)n([C@H](c4cccc(C#N)c4)C4CC4)c(COC(C)C)nc3=O)cc2)ccnc1F [Example 419, 3-[(S)-cyclopropyl({5-[4-(2-fluoro-3-methylpyridin-4-yl)benzenesulfonyl]-6-hydroxy-4-oxo-2-[(propan-2-yloxy)methyl]-1,4-dihydropyrimidin-1-yl})methyl]benzonitrile] | 0.01 to 10 nM
18 | CNC(=O)c1ccccc1-c1ccc(S(=O)(=O)c2c(O)n([C@H](c3cccc(C#N)c3)C3CC3)c(COC(C)C)nc2=O)cc1 [Example 420, 4′-({1-[(S)-(3-cyanophenyl)(cyclopropyl)methyl]-6-hydroxy-4-oxo-2-[(propan-2-yloxy)methyl]-1,4-dihydropyrinudin-5-yl}sulfonyl)-N-methyl-[1,1′-biphenyl]-2-carboxamide] | 0.01 to 10 nM
19 | CCOCc1nc(=O)c(S(=O)(=O)c2ccc(-c3ccccc3C(=O)NC)cc2)c(O)n1[C@H]1CCc2ccccc21 [Example 421, 4′-({1-[(1S)-2,3-dihydro-1H-inden-1-yl]-2-(ethoxymethyl)-6-hydroxy-4-oxo-1,4-dihydropyrimidin-5-yl}sulfonyl)-N-methy1-[1,1′-biphenyl]-2-carboxamide] | 0.01 to 10 nM
20 | CC[C@@H](c1ccccc1)n1c(COC(C)C)nc(=O)c(S(=O)(=O)c2ccc(-c3ccccc3C(=O)NC)cc2)c1O [Example 422, 4′-({6-hydroxy-4-oxo-1-[(1S)-1-phenylpropyl]-2-[(propan-2-yloxy)methyl]-1,4-dihydropyrimidin-5-yl}sulfonyl)-N-methy1-[1,1′-biphenyl]-2-carboxamide] | 0.01 to 10 nM
21 | CCCCc1nc(=O)c(S(=O)(=O)c2ccc(-c3ccncc3C)cc2)c(O)n1[C@@H](CC)c1ccc(F)cc1 [Example 423, 2-butyl-1-[(1S)-1-(4-fluorophenyl)propyl]-6-hydroxy-5-[4-(3-methylpyridin-4-yl)benzenesulfonyl]-1,4-dihydropyrimidin-4-one] | 0.01 to 10 nM
22 | CCCCc1nc(=O)c(S(=O)(=O)c2ccc(-c3ccnc(F)c3C)cc2)c(O)n1[C@@H](CC)c1ccc(F)cc1 [Example 424, 2-butyl-5-[4-(2-fluoro-3-methylpyridin-4-yl)benzenesulfonyl]-1-[(1S)-1-(4-fluorophenyl)propyl]-6-hydroxy-1,4-dihydropyrimidin-4-one] | 0.01 to 10 nM
23 | CCCCc1nc(=O)c(S(=O)(=O)c2ccc(-c3cccnc3C)cc2)c(O)n1[C@@H](CC)c1ccc(F)cc1 [Example 425, 2-butyl-1-[(1S)-1-(4-fluorophenyl)propyl]-6-hydroxy-5-[4-(2-methylpyridin-3-yl)benzenesulfonyl]-1,4-dihydropyrimidin-4-one] | 0.01 to 10 nM
24 | CCCCc1nc(=O)c(S(=O)(=O)c2ccc(-c3ccc(F)nc3C)cc2)c(O)n1[C@@H](CC)c1ccc(F)cc1 [Example 426, 2-butyl-5-[4-(6-fluoro-2-methylpyridin-3-yl)benzenesulfonyl]-1-[(1S)-1-(4-fluorophenyl)propyl]-6-hydroxy-1,4-dihydropyrimidin-4-one] | 0.01 to 10 nM
25 | CCCCc1nc(=O)c(S(=O)(=O)c2ccc(-c3ccncc3C)cc2)c(O)n1[C@@H](CC)c1cc(F)cc(F)c1 [Example 427, 2-butyl-1-[(1S)-1-(3,5-difluorophenyl)propyl]-6-hydroxy-5-[4-(3-methylpyridin-4-yl)benzenesulfonyl]-1,4-dihydropyrimidin-4-one] | 0.01 to 10 nM
